Test results from patent US11286226B2, “Polycyclic carbogenic molecules and uses thereof as anti-cancer agents” (Northwestern University, priority 2017, dated 2022).
Like-named read-outs stand apart in the source and are kept apart here.

Tests used:
HeLa (cervix) = test: Cell viability at 1 mM (CellTiter-GLO), HeLa; assay type: cell-based; conditions: Homo sapiens, 48 h, read-out: Percent Cell Viability of Treated Cell Lines at 1.0 mM, HeLa
Protocol: (§1) Cell lines PC-3, HT29, Hela, and MDA-MB-231 were cultured in RPMI1640 with 10% FBS media. Cell line MDA-MB-231-LM24 was cultured in DMEM with 400 ug/mL geneticin.
(§2) PC-3, HT29, Hela, and MDA-MB-231, and MDA-MB-231-LM24 cells were plated in […] at a density of 20,000 cells per well (based on NCI recommendation for adherent cells) in 90 μL volume of 5% FBS RPMI1640 complete media with 50 μg/mL gentamicin and incubated at 37° C. overnight. Each compound was diluted in RPMI1640 complete media supplemented with 5% FBS and 50 μg/mL of gentamycin, and 10 μL of this solution was added to each well to give a final concentration of 1 mM (1% overall DMSO, N=4 wells).
(§3) Cells treated with Doxorubicin with 1% overall DMSO were used as a positive control, and cells media containing 1% DMSO were used as a negative control.
(§4) 48 hours following treatment, cell proliferation was evaluated using the CellTiter-GLO Luminescent Cell Viability Assay (Promega, Madison, Wis.). Plates were allowed to equilibrate to room temperature for 20 minutes, and 100 μL of CellTiter-GLO reagent was added to all wells. The plates were shaken for 2 minutes and incubated at room temperature for 10 minutes. Luminescence was measured using a Syngergy H1-M microplate reader (BioTek Instruments, Inc.).

PC-3 (prostate) = test: Cell viability at 1 mM (CellTiter-GLO), PC-3; assay type: cell-based; conditions: Homo sapiens, 48 h, read-out: Percent Cell Viability of Treated Cell Lines at 1.0 mM, PC-3
Protocol: as §1, §2, §3, §4

MDA-MB-231 (breast) = test: Cell viability at 1 mM (CellTiter-GLO), MDA-MB-231; assay type: cell-based; conditions: Homo sapiens, read-out: Percent Cell Viability of Treated Cell Lines at 1.0 mM, MDA-MB-231
Protocol: as §1, §2, §3, §4

HT29 (colon) = test: Cell viability at 1 mM (CellTiter-GLO), HT29; assay type: cell-based; conditions: Homo sapiens, read-out: Percent Cell Viability of Treated Cell Lines at 1.0 mM, HT29
Protocol: as §1, §2, §3, §4

[1] = system: MDA-MB-231-LM24 (metastatic breast); test: Cell viability at 1 mM (CellTiter-GLO), MDA-MB-231-LM24; assay type: cell-based; conditions: Homo sapiens, read-out: Percent Cell Viability of Treated Cell Lines at 1.0 mM, MDA-MB-231-LM24
Protocol: as §1, §2, §3, §4

[2] = system: PC3 (prostate) cancer cell line; test: Cell viability assay at three concentrations (FIG. 7), PC3; assay type: cell-based, human; conditions: three different concentrations
[3] = system: MDA-MB-231 (breast) cancer cell line; test: Cell viability assay at three concentrations (FIG. 7), MDA-MB-231; assay type: cell-based, human; conditions: three different concentrations
normal human cells = conditions: reported (ref. 60); cited from earlier work
Plasmodium falciparum = conditions: reported value (ref. 60); read-out: IC50 against the malaria parasite Plasmodium falciparum; cited from earlier work
MCF10A = test: IC50 experiment (CellTiter-GLO), MCF10A; assay type: cell-based; conditions: Homo sapiens, MCF-10A; 48 h, 1% DMSO; read-out: IC50 against MCF10A
Protocol: (§5) Normal breast cell line MCF10A was cultured in DMEM/F12 with 5% horse serum, 20 ng/mL EGF, […], 100 ng/mL cholera toxin, 10 μg/mL insulin, and 1% pen/strep.
(§6) The compound was diluted in RPMI1640 complete media supplemented with 5% FBS and 50 μg/mL of gentamycin, and 100 μL of this solution was added to each well to give a final concentration of 0.00001-1 mM (N=4 wells). DMSO was held constant at 1%, for all dose points.
as §4, with “Inc.). The IC50 value was determined by Prism GraphPad Software.” for “Inc.).”

[4] = Cell viability at 1 mM (CellTiter-GLO), MCF10A; assay type: cell-based; conditions: human, MCF10A cells (normal breast); 1.0 mM in DMSO, 48 h, MCF10A; read-out: Percent Cell Viability of Treated Cell Lines at 1.0 mM, MCF10A
Protocol: as §5
(§7) Normal breast cells (MCF10A) were plated in 96-well black plates at a density of 20,000 cells per well (based on the NCI recommendation for adherent cells) in 90 μL volume of DMEM/F12 with 2% horse serum, 0.5 μg/mL hydrocortisone, 100 ng/mL cholera toxin, 10 μg/mL insulin, and 1% pen/strep, and incubated at 37° C. overnight. The compounds were diluted in the media specified above, and 10 μL of this solution was added to each well to give a final concentration of 1 mM (1% overall DMSO, N=4 wells).
as §3, §4

MDA-MB-231-LM24 = test: IC50 experiment (CellTiter-GLO), MDA-MB-231-LM24; assay type: cell-based, human
Protocol: as §1, §6
as §4, with “Inc.). The IC50 value was determined by Prism GraphPad Software.” for “Inc.).”

MCF10A ("normal" breast) = test: Cell viability at 1 mM (CellTiter-GLO), MCF10A; assay type: cell-based; conditions: non-tumorigenic breast epithelial cell line, 1.0 mM
Protocol: as §5, §7, §3, §4

[5] = 1.0 mM in DMSO, 48 h, MDA-MB-231
[6] = HT-29, 1.0 mM in DMSO, 48 h, HT29
[7] = 1.0 mM in DMSO, 48 h, MDA-MB-231-LM24

SMILES	viability at 1000 µM (HeLa (cervix); 1.0 mM in DMSO) [%]	viability at 1000 µM (PC-3 (prostate); 1.0 mM in DMSO, PC-3) [%]	viability at 1000 µM (MDA-MB-231 (breast); [5]) [%]	viability at 1000 µM (HT29 (colon); [6]) [%]	viability at 1000 µM [1, 7] [%]	viability at 48 h, 1 mM [4] [%]	other results
CC1=CC(=O)[C@@H]2[C@H]3C(=O)C=C(C)C[C@@H]3C=C[C@H]2C1 [Compound 15]	40	63	11	66	54	–	–
CC1=CC[C@H]2C=C(C)[C@@H]3CC=C(C)C(=O)[C@H]3[C@@H]2C1=O [Compound 18]	–	–	–	–	–	–	activity in cell viability assay, PC3 [2]: promising activity; activity in cell viability assay, MDA-MB-231 [3]: promising activity
C[C@@]12C=CC(=O)C[C@H]1C(=O)C=CC2 [Compound 29]	22	2	62	8	26	–	–
[C-]#[N+][C@]1(C)[C@H](C)C[C@@H]2C[C@H](C)[C@H]3CC[C@](C)([N+]#[C-])[C@H]4CC[C@H]1[C@@H]2[C@H]34 [Compound 39, (+)-7,20-diisocyanoadociane]	–	–	–	–	–	–	activity against normal human cells (normal human cells): inert; IC50 (Plasmodium falciparum): 0.0047 µM
C[C@]12CC(=O)C=C[C@@H]1CC=CC2=O [Compound 28]	0	1	2	0	16	–	–
O=C1C2O[C@@H]2C[C@H]2C=C[C@@H]3CC4O[C@H]4C(=O)[C@H]3[C@H]12 (stereo partly shown) [Compound 32]	0	1	25	1	0	70	IC50 (MCF10A): 3100 µM; IC50 (MDA-MB-231-LM24; Homo sapiens, MDA-MB-231-LM24, 48 h, 1% DMSO, read-out: IC50 against MDA-MB-231-LM24): 200 µM; selectivity between cancer versus "normal" cell lines (MDA-MB-231-LM24; MCF10A IC50 versus MDA-MB-231-LM24 IC50): 15 times
O=C1C=CC[C@@H]2[C@@H]1[C@@H]1C(=O)C=CC[C@H]1C1O[C@H]12 (stereo partly shown) [Compound 31]	2	0	26	0	3	5	activity against MCF10A cell line (MCF10A ("normal" breast)): highly active
CC1=CC[C@@H]2C(C)=C[C@@]3(C)CC=CC(=O)[C@@H]3[C@H]2C1=O [Compound 20]	2	11	43	31	10	–	–
CC1=C[C@@H]2[C@H](C(=O)CCC2(C)C)[C@H]2C(=O)[C@@H](C)CC[C@H]12 [Compound 36]	41	77	53	64	55	–	–
CC1=CC[C@H]2C(C)=CCC3(CCC=CC3=O)[C@@H]2C1=O (stereo partly shown) [Compound 24]	3	0	1	0	0	4	activity against MCF10A cell line (MCF10A ("normal" breast)): highly active; activity in cell viability assay, PC3 [2]: promising activity; activity in cell viability assay, MDA-MB-231 [3]: promising activity
O=C1C=CC[C@H]2C=C[C@@H]3CC=CC(=O)[C@H]3[C@H]12 [Compound 13]	4	0	26	2	2	1	activity against MCF10A cell line (MCF10A ("normal" breast)): highly active
CC1=CC[C@@H]2C(C)=C[C@@H]3[C@H](C(=O)C=CC3(C)C)[C@H]2C1=O [Compound 21]	–	–	–	–	–	4	viability at 1000 µM (HeLa (cervix)): 0%; viability at 1000 µM (PC-3 (prostate)): 0%; viability at 1000 µM (MDA-MB-231 (breast); MDA-MB-231, 48 h): 0%; viability at 1000 µM (HT29 (colon); HT-29, 48 h): 0%; activity against MCF10A cell line (MCF10A ("normal" breast)): highly active; viability at 1000 µM ([1]; MDA-MB-231-LM24, 48 h): 0%
CC1=CC[C@H]2C(C)=C[C@@H]3CC=CC(=O)[C@@]3(C)[C@@H]2C1=O [Compound 19]	0	1	0	1	0	–	–
O=C1C=CC[C@H]2CC=C[C@@H]3CC=CC(=O)[C@H]3[C@H]12 [Compound 25]	21	0	6	0	1	–	–
O=C1CCC[C@H]2CC[C@@H]3CCCC(=O)[C@H]3[C@H]12 [Compound 33]	13	77	75	51	60	–	–
CC1=CC[C@H]2C=C[C@@H]3CC=C(C)C(=O)[C@H]3[C@@H]2C1=O [Compound 14]	46	72	69	1	67	–	–
